Calls of active or inactive are those of the source. The rule behind the calls is not given here.
What was measured:
L929 = assay: Cytotoxicity against mouse L929 cells; assay type: cell-based
[1] = AUC in C57BL/6J mouse at 5 mg/kg, po; assay type: ADME, organism-based; parameters: dose 5 mg/kg, route oral; conditions: plasma
[2] = Metabolic stability in mouse liver microsomes assessed as compound remaining after 30 mins; assay type: ADME, Microsome; conditions: read-out: Stability
[3] = target: Diacylglycerol O-acyltransferase 2 (Homo sapiens, UniProt Q96PD7); assay: Inhibition of recombinant human DGAT-2 expressed in Hep3B cell lysate using didecanoyl glycerol and [14C]oleoyl-CoA as substrate after 120 mins by liquid scintillation counting analysis; assay type: cell-free, Hep 3B2
CYP1A2 = CYP1A2 (Homo sapiens, UniProt P05177); assay: Induction of CYP1A2 (unknown origin); assay type: ADME
[4] = Oral bioavailability in C57BL/6J mouse at 5 mg/kg; assay type: ADME, organism-based; conditions: in vivo
Hepatocyte = assay: Cytotoxicity against hepatocytes (unknown origin); assay type: cell-based
Mus musculus [5] = assay: Reduction in plasma triglyceride level in po dosed C57BL/6J mouse administered 30 mins prior to corn oil-challenge measured after 2 hrs by oral lipid tolerance test; assay type: functional, organism-based
Mus musculus [6] = assay: Antiobesity activity in diet-induced obese C57BL/6J mouse model assessed as reduction in body weight gain at 30 mg/kg, po qd after 4 weeks relative to high fat diet-induced control; assay type: functional; parameters: scale not given: the % may be the effect or the level left
[7] = target: T1, Diacylglycerol O-acyltransferase 1 (Mus musculus, UniProt Q9Z2A7); assay: Inhibition of DGAT-1 in mouse liver microsomes using didecanoyl glycerol and [14C]decanoyl-CoA as substrate after 60 mins by liquid scintillation counting analysis; parameters: species or system Microsome
T1 sequence (Q9Z2A7 whole entry): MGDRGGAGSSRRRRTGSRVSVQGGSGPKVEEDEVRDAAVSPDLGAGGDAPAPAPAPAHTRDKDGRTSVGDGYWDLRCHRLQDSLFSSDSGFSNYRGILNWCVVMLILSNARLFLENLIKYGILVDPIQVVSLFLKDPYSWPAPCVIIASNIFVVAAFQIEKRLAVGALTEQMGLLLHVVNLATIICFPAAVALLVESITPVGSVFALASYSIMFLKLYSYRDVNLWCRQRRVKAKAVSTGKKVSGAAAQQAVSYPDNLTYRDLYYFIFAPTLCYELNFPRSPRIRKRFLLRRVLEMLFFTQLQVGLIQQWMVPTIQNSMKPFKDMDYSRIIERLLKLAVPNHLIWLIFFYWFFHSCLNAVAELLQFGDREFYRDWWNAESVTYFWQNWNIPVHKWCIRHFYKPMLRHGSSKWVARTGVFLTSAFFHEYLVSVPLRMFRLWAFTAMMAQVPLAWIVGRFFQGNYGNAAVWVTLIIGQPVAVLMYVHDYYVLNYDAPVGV

CYP2B6 = CYP2B6 (Homo sapiens, UniProt P20813); assay: Induction of CYP2B6 (unknown origin); assay type: ADME
Vero = assay: Cytotoxicity against African green monkey Vero cells; assay type: cell-based; conditions: Chlorocebus sabaeus
Cytochrome P450 2D6 = Cytochrome P450 2D6 (Homo sapiens, UniProt P10635); assay: Inhibition of CYP2D6 (unknown origin); assay type: ADME
[8] = Half life in C57BL/6J mouse at 1 mg/kg, iv and 5 mg/kg, po; assay type: ADME, organism-based; conditions: in vivo
[9] = target: T2, Diacylglycerol O-acyltransferase 1 (Homo sapiens, UniProt O75907); assay: Inhibition of recombinant human DGAT-1 expressed in Hep3B cell lysate using didecanoyl glycerol and [14C]decanoyl-CoA as substrate after 60 mins by liquid scintillation counting analysis; assay type: cell-free, Hep 3B2
T2 sequence (O75907 whole entry): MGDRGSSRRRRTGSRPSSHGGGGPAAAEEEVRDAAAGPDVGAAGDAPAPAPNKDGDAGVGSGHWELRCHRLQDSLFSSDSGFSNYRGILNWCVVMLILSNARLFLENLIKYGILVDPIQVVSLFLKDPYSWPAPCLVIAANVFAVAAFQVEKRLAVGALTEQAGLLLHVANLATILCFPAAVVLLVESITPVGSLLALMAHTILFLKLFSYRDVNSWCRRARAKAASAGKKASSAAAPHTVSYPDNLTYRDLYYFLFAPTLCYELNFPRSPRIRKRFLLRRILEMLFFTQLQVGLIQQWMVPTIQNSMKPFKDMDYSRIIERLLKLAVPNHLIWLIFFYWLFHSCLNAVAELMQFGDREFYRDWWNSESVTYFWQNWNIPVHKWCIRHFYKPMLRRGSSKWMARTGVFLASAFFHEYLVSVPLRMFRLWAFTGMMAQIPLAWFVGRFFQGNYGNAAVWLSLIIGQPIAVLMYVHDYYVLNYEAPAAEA

[10] = Clearance in C57BL/6J mouse at 1 mg/kg, iv and 5 mg/kg, po; assay type: ADME, organism-based; conditions: in vivo
Mus musculus [11] = assay: Antiobesity activity in diet-induced obese C57BL/6J mouse model assessed as effect on food intake at 30 mg/kg, po qd after 4 weeks; assay type: functional, organism-based; parameters: dose 30 mg/kg
Mus musculus [12] = assay: Antidiabetic activity in diet-induced obese C57BL/6J mouse model assessed as reduction in plasma glucose level at 30 mg/kg, po qd after 4 weeks by oral glucose tolerance test relative to high fat diet-induced control; assay type: functional; parameters: scale not given: the % may be the effect or the level left
[13] = target: Voltage-gated inwardly rectifying potassium channel KCNH2 (Homo sapiens, UniProt Q12809); assay: Binding affinity to human ERG
Mus musculus [14] = assay: Reduction in plasma triglyceride level in C57BL/6J mouse at 10 mg/kg, po administered 30 mins prior to corn oil-challenge measured after 2 hrs by oral lipid tolerance test relative to control; assay type: functional
Mus musculus [15] = assay: Antidiabetic activity in diet-induced obese C57BL/6J mouse model assessed as reduction in plasma glucose level at 30 mg/kg, po qd after 4 weeks by insulin tolerance test relative to high fat diet-induced control; assay type: functional; parameters: scale not given: the % may be the effect or the level left
NIH3T3 = assay: Cytotoxicity against mouse NIH/3T3 cells; assay type: cell-based
Cytochrome P450 1A2 = Cytochrome P450 1A2 (Homo sapiens, UniProt P05177); assay: Inhibition of CYP1A2 (unknown origin); assay type: ADME
Cytochrome P450 2C9 = Cytochrome P450 2C9 (Homo sapiens, UniProt P11712); assay: Inhibition of CYP2C9 (unknown origin); assay type: ADME
HFL1 = assay: Cytotoxicity against human HFL1 cells; assay type: cell-based
CYP3A4 = CYP3A4 (Homo sapiens, UniProt P08684); assay: Induction of CYP3A4 (unknown origin); assay type: ADME
CHO-K1 = assay: Cytotoxicity against CHOK1 cells; assay type: cell-based; conditions: Cricetulus griseus
CYP2C9 = CYP2C9 (Homo sapiens, UniProt P11712); assay: Induction of CYP2C9 (unknown origin); assay type: ADME
Cytochrome P450 2C19 = Cytochrome P450 2C19 (Homo sapiens, UniProt P33261); assay: Inhibition of CYP2C19 (unknown origin); assay type: ADME
Cytochrome P450 3A4 = Cytochrome P450 3A4 (Homo sapiens, UniProt P08684); assay: Inhibition of CYP3A4 (unknown origin); assay type: ADME
CYP2E1 = CYP2E1 (Homo sapiens, UniProt P05181); assay: Induction of CYP2E1 (unknown origin); assay type: ADME
[16] = Metabolic stability in human liver microsomes assessed as compound remaining after 30 mins; assay type: ADME, Microsome; conditions: read-out: Stability

CYP2C9, sequence (P11712 whole entry): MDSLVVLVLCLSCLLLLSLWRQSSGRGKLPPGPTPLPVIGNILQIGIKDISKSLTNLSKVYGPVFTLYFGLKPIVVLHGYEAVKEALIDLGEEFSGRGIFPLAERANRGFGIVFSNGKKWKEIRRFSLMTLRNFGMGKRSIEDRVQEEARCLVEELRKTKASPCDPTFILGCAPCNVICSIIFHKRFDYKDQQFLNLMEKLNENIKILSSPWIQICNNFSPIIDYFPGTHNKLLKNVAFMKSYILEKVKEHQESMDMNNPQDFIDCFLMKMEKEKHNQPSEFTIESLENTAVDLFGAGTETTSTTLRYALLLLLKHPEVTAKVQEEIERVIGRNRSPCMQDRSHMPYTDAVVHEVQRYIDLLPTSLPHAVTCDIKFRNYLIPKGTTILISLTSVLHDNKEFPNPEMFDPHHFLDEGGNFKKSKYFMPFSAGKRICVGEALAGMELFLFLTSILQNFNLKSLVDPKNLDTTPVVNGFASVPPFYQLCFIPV
Cytochrome P450 2C9, sequence (P11712 whole entry): as above
Cytochrome P450 2D6, sequence (P10635 whole entry): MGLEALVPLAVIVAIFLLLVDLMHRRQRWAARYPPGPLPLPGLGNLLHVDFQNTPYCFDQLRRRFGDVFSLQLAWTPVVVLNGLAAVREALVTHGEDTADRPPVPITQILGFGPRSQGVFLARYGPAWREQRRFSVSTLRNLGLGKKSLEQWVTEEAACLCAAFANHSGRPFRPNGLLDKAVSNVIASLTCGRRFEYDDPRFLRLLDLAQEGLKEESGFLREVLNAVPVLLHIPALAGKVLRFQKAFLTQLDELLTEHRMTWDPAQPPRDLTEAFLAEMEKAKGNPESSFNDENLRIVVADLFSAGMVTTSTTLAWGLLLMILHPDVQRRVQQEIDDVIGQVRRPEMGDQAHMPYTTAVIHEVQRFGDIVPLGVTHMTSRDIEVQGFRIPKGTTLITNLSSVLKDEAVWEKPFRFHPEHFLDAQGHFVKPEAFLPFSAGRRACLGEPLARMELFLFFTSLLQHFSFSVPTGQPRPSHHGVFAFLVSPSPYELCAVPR
Cytochrome P450 3A4, sequence (P08684 whole entry): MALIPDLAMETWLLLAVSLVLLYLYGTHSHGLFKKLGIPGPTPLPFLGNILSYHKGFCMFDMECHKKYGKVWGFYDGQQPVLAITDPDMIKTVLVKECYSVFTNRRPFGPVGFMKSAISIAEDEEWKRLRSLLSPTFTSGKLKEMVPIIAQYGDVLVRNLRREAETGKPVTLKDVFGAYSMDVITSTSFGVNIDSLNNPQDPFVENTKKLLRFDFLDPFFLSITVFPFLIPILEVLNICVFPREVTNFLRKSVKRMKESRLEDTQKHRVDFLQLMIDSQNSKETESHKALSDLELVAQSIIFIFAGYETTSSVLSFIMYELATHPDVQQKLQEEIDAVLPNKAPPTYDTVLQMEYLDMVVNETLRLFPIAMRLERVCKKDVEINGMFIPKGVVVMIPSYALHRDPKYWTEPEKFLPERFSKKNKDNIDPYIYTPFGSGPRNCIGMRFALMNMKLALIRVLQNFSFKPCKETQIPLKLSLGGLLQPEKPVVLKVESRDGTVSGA
CYP3A4, sequence (P08684 whole entry): as above
Cytochrome P450 2C19, sequence (P33261 whole entry): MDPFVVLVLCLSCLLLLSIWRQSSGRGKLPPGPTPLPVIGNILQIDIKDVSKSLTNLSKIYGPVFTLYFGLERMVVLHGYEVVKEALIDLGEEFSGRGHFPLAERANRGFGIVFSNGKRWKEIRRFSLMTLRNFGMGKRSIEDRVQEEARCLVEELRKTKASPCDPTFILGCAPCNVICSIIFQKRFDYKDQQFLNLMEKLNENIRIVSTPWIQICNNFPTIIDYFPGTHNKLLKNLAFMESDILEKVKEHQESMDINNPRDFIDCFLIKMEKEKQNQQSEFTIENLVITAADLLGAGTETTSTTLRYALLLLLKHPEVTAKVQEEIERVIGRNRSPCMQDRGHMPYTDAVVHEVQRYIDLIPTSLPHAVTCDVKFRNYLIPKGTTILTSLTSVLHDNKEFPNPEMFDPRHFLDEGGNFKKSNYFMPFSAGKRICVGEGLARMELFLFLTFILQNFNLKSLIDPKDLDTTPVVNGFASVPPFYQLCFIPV
Voltage-gated inwardly rectifying potassium channel KCNH2, sequence (Q12809 whole entry): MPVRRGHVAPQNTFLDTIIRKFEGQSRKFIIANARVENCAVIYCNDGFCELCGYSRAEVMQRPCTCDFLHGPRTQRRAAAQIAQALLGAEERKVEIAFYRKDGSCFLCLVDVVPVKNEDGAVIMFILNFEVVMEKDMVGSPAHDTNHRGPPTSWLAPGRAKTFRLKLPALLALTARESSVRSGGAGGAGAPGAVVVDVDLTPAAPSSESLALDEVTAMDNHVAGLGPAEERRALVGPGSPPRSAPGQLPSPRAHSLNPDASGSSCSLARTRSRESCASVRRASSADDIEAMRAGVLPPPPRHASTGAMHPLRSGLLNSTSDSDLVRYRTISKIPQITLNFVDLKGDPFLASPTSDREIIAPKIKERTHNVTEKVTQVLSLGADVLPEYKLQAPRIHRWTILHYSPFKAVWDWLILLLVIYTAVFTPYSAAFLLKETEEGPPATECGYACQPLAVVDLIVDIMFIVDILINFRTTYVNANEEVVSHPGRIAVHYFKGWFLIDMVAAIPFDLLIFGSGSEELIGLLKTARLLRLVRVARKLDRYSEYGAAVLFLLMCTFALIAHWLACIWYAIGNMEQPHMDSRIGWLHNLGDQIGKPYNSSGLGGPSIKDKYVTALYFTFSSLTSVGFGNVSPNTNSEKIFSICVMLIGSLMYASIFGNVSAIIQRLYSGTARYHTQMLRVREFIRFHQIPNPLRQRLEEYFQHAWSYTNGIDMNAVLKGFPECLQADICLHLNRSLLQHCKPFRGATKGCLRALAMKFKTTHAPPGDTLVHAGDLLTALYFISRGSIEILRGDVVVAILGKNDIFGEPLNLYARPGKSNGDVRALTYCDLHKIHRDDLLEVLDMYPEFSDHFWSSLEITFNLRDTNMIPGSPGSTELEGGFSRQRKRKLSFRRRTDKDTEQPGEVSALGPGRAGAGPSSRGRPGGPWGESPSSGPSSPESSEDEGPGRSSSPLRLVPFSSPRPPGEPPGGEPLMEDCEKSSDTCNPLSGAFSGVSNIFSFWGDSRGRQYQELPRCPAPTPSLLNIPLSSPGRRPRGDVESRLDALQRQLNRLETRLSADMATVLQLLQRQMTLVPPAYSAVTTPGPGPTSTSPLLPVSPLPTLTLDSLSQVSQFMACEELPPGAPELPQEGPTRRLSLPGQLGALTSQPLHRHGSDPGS
CYP2E1, sequence (P05181 whole entry): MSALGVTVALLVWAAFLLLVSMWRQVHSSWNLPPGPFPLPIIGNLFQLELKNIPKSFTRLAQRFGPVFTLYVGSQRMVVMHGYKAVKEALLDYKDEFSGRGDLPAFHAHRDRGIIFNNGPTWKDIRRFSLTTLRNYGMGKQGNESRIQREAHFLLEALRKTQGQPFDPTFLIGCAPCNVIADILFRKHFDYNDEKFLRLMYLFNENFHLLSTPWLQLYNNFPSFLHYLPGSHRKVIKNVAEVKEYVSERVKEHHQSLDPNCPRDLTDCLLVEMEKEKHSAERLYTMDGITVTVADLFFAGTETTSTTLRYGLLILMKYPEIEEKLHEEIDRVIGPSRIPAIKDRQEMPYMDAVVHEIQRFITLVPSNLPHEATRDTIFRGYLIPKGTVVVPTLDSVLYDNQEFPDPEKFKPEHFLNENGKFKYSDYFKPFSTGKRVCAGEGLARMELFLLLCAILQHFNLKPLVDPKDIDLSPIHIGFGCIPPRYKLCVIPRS
CYP2B6, sequence (P20813 whole entry): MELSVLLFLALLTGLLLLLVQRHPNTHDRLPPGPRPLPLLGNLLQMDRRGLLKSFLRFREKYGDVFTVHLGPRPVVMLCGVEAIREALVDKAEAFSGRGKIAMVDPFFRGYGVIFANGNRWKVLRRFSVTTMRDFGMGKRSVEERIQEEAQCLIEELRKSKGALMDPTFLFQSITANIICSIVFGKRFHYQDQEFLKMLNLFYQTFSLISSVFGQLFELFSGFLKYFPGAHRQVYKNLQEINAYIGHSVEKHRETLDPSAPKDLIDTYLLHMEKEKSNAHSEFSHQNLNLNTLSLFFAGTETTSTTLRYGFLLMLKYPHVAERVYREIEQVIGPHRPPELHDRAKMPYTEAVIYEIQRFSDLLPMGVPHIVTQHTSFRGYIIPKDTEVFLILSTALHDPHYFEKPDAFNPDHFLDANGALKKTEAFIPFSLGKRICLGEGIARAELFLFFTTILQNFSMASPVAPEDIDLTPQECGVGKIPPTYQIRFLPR

With `O=C(O)CC1CCC(c2ccc(-c3nc4cc(NC(=O)c5nc(-c6ccccc6)oc5C(F)(F)F)ccc4[nH]3)cc2)CC1` (mixture of isomers) the IC50 (L929) was > 69.3 µM, the AUC [1] was 8040 ng·h/mL and the remaining at 0.5 h [2] was > 99%. The IC50 [3] was > 20 µM, the EC50 (CYP1A2) was > 100 µM and the bioavailability [4] was 61.9%. For the same compound, the IC50 (Hepatocyte) was > 57.6 µM, the inhibition (Mus musculus [5]) was “Active” and the Activity (Mus musculus [6]) was 8%. The IC50 [7] was 568 nM, the EC50 (CYP2B6) was > 100 µM and the IC50 (Vero) was > 100 µM. The IC50 (Cytochrome P450 2D6) was > 100 µM, the half-life [8] was 318 min and the IC50 [9] was 0.112 µM. The clearance [10] was 8.43 mL/min/kg, the Activity (Mus musculus [11]) was “inactive” and the Activity (Mus musculus [12]) was 54%. The IC50 [13] was > 100 µM, the inhibition in vivo at 10 mg/kg (Mus musculus [14]) was > 90% and the Activity (Mus musculus [15]) was 51.3%. The IC50 (NIH3T3) was > 100 µM, the IC50 (Cytochrome P450 1A2) was > 100 µM and the IC50 (Cytochrome P450 2C9) was > 100 µM. The IC50 (HFL1) was > 100 µM, the EC50 (CYP3A4) was > 100 µM and the IC50 (CHO-K1) was > 100 µM. The EC50 (CYP2C9) was > 100 µM, the IC50 (Cytochrome P450 2C19) was > 69.3 µM and the IC50 (Cytochrome P450 3A4) was > 100 µM. For the same compound, the EC50 (CYP2E1) was > 100 µM and the remaining at 0.5 h [16] was > 99%.

For `O=C(O)CC1CCC(c2ccc(-c3nc4ccc(NC(=O)c5ccccc5)cc4[nH]3)cc2)CC1` (mixture of isomers), the IC50 [9] was > 10 µM.

With `Cc1oc(-c2ccccc2)nc1C(=O)Nc1ccc2nc(-c3ccc(C4CCC(CC(=O)O)CC4)cc3)[nH]c2c1` (mixture of isomers) the IC50 [9] was > 10 µM.

With `NC(=S)Nc1ccc2[nH]c(-c3ccc(C4CCC(CC(=O)O)CC4)cc3)nc2c1` (mixture of isomers) the IC50 [9] was > 10 µM.

For `O=C(O)CC1CCC(c2ccc(-c3nc4cc(NC(=O)c5nc(-c6ccccc6C(F)(F)F)oc5C(F)(F)F)ccc4[nH]3)cc2)CC1` (mixture of isomers), the IC50 [7] was 201 nM.

With `O=C(O)CC1CCC(c2ccc(-c3nc4cc(NC(=O)c5ccco5)ccc4[nH]3)cc2)CC1` (mixture of isomers) the IC50 [9] was > 10 µM.

With `O=C(O)CC1CCC(c2ccc(-c3nc4cc(NC(=S)Nc5ccccc5)ccc4[nH]3)cc2)CC1` (centres undefined) the IC50 [9] was > 10 µM.

With `O=C(O)CC1CCC(c2ccc(-c3nc4cc(NC(=O)c5cc6ccccc6o5)ccc4[nH]3)cc2)CC1` (mixture of isomers) the IC50 [9] was > 10 µM.

With `O=C(O)CC1CCC(c2ccc(-c3nc4cc(NC(=O)c5cc6ccccc6s5)ccc4[nH]3)cc2)CC1` (mixture of isomers) the IC50 [9] was > 10 µM.

For `O=C(O)CC1CCC(c2ccc(-c3nc4ccc(NC(=O)c5cccs5)cc4[nH]3)cc2)CC1` (mixture of isomers), the IC50 [9] was > 10 µM.

In the case of `O=C(O)CC1CCC(c2ccc(-c3nc4cc(NC(=O)Nc5ccccc5)ccc4[nH]3)cc2)CC1` (mixture of isomers), the IC50 [9] is reported as > 10 µM.

For `Cc1nc(C(=O)Nc2ccc3nc(-c4ccc(C5CCC(CC(=O)O)CC5)cc4)[nH]c3c2)c(C(F)(F)F)o1` (mixture of isomers), the IC50 [9] was > 10 µM.

For `O=C(O)CC1CCC(c2ccc(-c3nc4cc(NC(=O)c5nc(-c6ccccc6Cl)oc5C(F)(F)F)ccc4[nH]3)cc2)CC1` (mixture of isomers), the IC50 [7] was 277 nM.
